Drawing on paper PMC7528119, “The rapid “teabag” method for high-end purification of membrane proteins” (Scientific Reports, 2020), this text covers Kd for one compound.

As usually defined, the Kd is the equilibrium constant for the complex coming apart. Lower therefore signals tighter binding.

The target in the assay is T1, KCC2 (Monodelphis domestica, UniProt F6WQ48).
T1 construct: gene SLC12A5; N-terminal His and FLAG tag
T1 sequence (F6WQ48 1-1115): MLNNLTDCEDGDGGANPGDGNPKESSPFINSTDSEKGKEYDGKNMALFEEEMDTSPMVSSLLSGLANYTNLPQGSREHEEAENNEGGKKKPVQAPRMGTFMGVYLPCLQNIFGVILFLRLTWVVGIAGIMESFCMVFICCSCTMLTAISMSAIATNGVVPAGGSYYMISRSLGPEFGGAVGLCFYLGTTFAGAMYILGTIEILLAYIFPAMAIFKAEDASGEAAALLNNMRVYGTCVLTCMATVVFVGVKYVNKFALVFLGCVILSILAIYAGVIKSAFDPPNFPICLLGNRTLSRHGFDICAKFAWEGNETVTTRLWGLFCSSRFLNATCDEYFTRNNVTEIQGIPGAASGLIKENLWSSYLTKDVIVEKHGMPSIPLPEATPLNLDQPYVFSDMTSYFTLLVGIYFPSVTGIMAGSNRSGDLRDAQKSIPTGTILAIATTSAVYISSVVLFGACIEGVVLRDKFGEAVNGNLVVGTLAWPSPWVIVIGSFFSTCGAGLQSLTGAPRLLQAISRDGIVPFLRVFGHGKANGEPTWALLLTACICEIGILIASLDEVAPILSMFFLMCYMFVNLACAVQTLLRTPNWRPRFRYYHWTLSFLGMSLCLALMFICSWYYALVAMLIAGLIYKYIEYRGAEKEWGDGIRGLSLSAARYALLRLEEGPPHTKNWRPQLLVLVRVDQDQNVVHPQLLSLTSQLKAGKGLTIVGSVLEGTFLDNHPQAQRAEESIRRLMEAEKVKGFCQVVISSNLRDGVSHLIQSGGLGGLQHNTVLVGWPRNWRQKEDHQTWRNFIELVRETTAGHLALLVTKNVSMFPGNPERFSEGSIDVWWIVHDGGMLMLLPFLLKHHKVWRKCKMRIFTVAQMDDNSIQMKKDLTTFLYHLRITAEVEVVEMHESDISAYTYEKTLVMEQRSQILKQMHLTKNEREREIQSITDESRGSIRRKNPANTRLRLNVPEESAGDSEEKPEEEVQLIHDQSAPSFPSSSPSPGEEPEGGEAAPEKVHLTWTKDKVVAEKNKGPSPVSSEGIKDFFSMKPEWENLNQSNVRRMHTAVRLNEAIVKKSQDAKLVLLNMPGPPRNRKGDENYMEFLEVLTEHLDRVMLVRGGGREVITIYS
Kind of assay: SPR steady-state affinity on covalently immobilized KCC2. In kind it is binding.

The compound `Cc1csc(N(C(=O)CSc2ccc(-c3ccccc3)nn2)C2CC2)n1` [VU0463271] came in with a Kd of 750 ± 250 nM.
